Data as given in patent publication US10000488B2, “Heterocyclic compound” (TAKEDA PHARMACEUTICAL COMPANY LIMITED, priority 2014, dated 2018).
Where two headings read alike, the source gives them in different places.

Experiments:
RORγt [1] = target: T1, RORγt (Homo sapiens, UniProt P51449); experiment: RORγt binding test using fluorescent-labeled synthetic ligand (TR-FRET); conditions: for inhibition at 1 µM: test compound 1 μM, read-out: binding inhibitory rate (%) of fluorescent-labeled synthetic ligand to RORγt at test compound 1 μM
T1 sequence (P51449 1-497 isoform P51449-2): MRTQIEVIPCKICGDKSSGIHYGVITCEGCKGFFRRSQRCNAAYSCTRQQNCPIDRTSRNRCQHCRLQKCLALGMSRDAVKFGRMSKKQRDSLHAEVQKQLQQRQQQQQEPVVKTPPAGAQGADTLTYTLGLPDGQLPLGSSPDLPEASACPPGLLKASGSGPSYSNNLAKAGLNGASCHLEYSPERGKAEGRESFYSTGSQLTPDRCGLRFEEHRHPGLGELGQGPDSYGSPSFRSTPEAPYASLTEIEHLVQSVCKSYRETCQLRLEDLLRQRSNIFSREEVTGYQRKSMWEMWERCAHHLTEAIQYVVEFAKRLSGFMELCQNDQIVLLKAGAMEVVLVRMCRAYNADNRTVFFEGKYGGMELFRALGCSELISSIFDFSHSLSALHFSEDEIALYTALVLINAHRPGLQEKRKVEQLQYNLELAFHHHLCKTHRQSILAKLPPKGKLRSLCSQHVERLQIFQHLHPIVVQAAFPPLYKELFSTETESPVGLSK
Protocol: RORγt Binding Test Using Fluorescent-Labeled Synthetic Ligand
The binding activity of the test compound to RORγt was measured by a time resolved fluorescence resonance energy transfer (TR-FRET) utilizing histidine-tagged RORγt, fluorescent-labeled synthetic ligand, and terbium-labeled anti-histidine tag antibody (Invitrogen). First, a test compound diluted with an assay buffer (20 mM Tris-HCl (pH 7.5), 100 mM NaCl, 1 mM DTT, 0.1% BSA) was added to a 384 well plate by 3 μL. Then, RORγt diluted with an assay buffer to 240 nM was added by 3 μL, after which fluorescent-labeled synthetic ligand diluted with the assay buffer to 12 μM was added by 3 μL, and the mixture was stood at room temperature for 20 min. Thereafter, a terbium-labeled anti-histidine tag antibody diluted with the assay buffer to 8 nM was added by 3 μL. The mixture was stood at room temperature for 20 min, and fluorescence intensity (excitation wavelength 320 nm, fluorescence wavelength 520 nm, delay time 100 microseconds) was measured by Envision (PerkinElmer).

RORγt [2] = target: T1, RORγt; experiment: Cofactor recruitment test (Alpha Screen, biotinylated SRC-1 peptide); format: biochemical; conditions: read-out: signal value inhibitory rate (%) at test compound 1 μM
Protocol: Cofactor Recruitment Test
Cofactor recruitment test was performed by Alpha Screen (Histidine Detection Kit, PerkinElmer) method. First, a test compound was diluted with an assay buffer (50 mM Tris-HCl (pH 7.5), 50 mM KCl, 1 mM DTT, 0.1% BSA) and added to a 384 well plate by 5 μL. […] The mixture was stood in a dark place for 1 hr, and the signal value was measured by Envision (PerkinElmer).

RORγt [3] = target: T1, RORγt; experiment: Jurkat reporter test (human IL-17 ROR response element luciferase reporter, RORγt vector); format: cell-based; conditions: Jurkat cells; for inhibition at 3 µM: test compound 3 μM, read-out: luminescence level inhibitory rate (%) at test compound 3 μM
Protocol: The Jurkat cells used for the reporter test were cultured in a culture medium (RPMI (Invitrogen), 10% FCS (AusGeneX), 100 U/mL penicillin, 100 μg/mL streptomycin). On the day of the test, 4×10^7 cells were recovered by a centrifugal operation (1000 rpm, for 5 min) and suspended in PBS (phosphate buffered saline) (Invitrogen). Thereafter, the cells were recovered again by a centrifugal operation, and suspended in 2 mL of R buffer (NEON transfection kit, Invitrogen). […] Gene transfer was performed by Electroporation apparatus (NEON, Invitrogen) under the conditions of pulse voltage 1350 V, interval 10 milliseconds, number of times 3. The cells after gene transfer were suspended in 40 mL of a reaction medium (RPMI, 10% Lipid reduced FCS (HyClone), 10 mM HEPES (pH 7.5), 100 U/mL penicillin, 100 μg/mL streptomycin, 5 μM lovastatin), and plated in a 96 well plate by 90 μL. A test compound diluted with the reaction medium was added by 10 μL, and the cells were cultured overnight in an incubator. Bright-Glo (Promega) was added by 100 μL, and the mixture was stirred at room temperature for 10 min, and the luminescence level was measured by Envision (PerkinElmer).

Compound	inhibition at 1 µM (RORγt [1])	inhibition at 1 µM (RORγt [2])	inhibition at 3 µM (RORγt [3])	binding inhibitory rate (%) of fluorescent-labeled synthetic ligand to RORγt at test compound 1 μM (RORγt [1])	luminescence level inhibitory rate (%) at test compound 3 μM (RORγt [3])	binding inhibitory rate (%) of fluorescent-labeled synthetic ligand to RORγt at test compound 1 μM (RORγt [1]; 1 µM)
CC(C)n1c(=O)n(CC2CC2)c(=O)c2cc(NC(=O)N3CCC[C@@H](NC(=O)c4ccc(C#N)nc4)C3)ccc21 [Example 223, 6-cyano-N-((3R)-1-((3-(cyclopropylmethyl)-1-isopropyl-2,4-dioxo-1,2,3,4-tetrahydroquinazolin-6-yl)carbamoyl)piperidin-3-yl)nicotinamide]	102%	111%	102%			
CC(C)n1c(=O)n(CC2CC2)c(=O)c2cc(NC(=O)[C@@H]3CCC[C@@H]3NC(=O)c3ccc(C#N)cc3)ccc21 [Example 264, 4-cyano-N-((1S,2R)-2-((3-(cyclopropylmethyl)-1-isopropyl-2,4-dioxo-1,2,3,4-tetrahydroquinazolin-6-yl)carbamoyl)cyclopentyl)benzamide]	102%	110%	102%			
CC(C)n1c(=O)n(C[C@@H]2CCCO2)c(=O)c2cc(NC(=O)N3CCO[C@@H](C(=O)Nc4ccc(C#N)c(Cl)c4)C3)c(F)cc21 [Example 357, (2R)—N^2-(3-chloro-4-cyanophenyl)-N^4-(7-fluoro-1-isopropyl-2,4-dioxo-3-((2S)-tetrahydrofuran-2-ylmethyl)-1,2,3,4-tetrahydroquinazolin-6-yl)morpholine-2,4-dicarboxamide]	101%	107%	106%			
CC(C)n1c(=O)n(CC2CC2)c(=O)c2cc(NC(=O)N3CCO[C@@H](C(=O)Nc4ccc(C#N)c(Cl)c4)C3)c(F)cc21 [Example 235, (2R)-N^2-(3-chloro-4-cyanophenyl)-N^4-(3-(cyclopropylmethyl)-7-fluoro-1-isopropyl-2,4-dioxo-1,2,3,4-tetrahydroquinazolin-6-yl)morpholine-2,4-dicarboxamide]	102%	109%	103%			
CC(C)n1c(=O)n(CC2CC2(F)F)c(=O)c2cc(NC(=O)N3CCO[C@@H](C(=O)Nc4ccc(C#N)c(Cl)c4)C3)c(F)cc21 (stereo partly drawn) [Example 331, (2R)—N^2-(3-chloro-4-cyanophenyl)-N^4-(3-((2,2-difluorocyclopropyl)methyl)-7-fluoro-1-isopropyl-2,4-dioxo-1,2,3,4-tetrahydroquinazolin-6-yl)morpholine-2,4-dicarboxamide]	102%	109%	103%			
CC(C)n1c(=O)n(CC2CC2(F)F)c(=O)c2cc(NC(=O)N3CCCC(n4cnc5cc(C#N)ccc5c4=O)C3)c(F)cc21 (single isomer, unassigned) [Example 369, (3R)-3-(7-cyano-4-oxoquinazoline-3(4H)-yl)-N-(3-(((1R or 1S)-2,2-difluorocyclopropyl)methyl)-7-fluoro-1-isopropyl-2,4-dioxo-1,2,3,4-tetrahydroquinazolin-6-yl)piperidine-1-carboxamide (one stereoisomer, quinazolinedione: derived from tR2)]				102%	110%	
CC(C)n1c(=O)n(CC2CC2)c(=O)c2cc(NC(=O)N3CCC[C@@H](NC(=O)c4cc(F)ccc4F)C3)c(F)cc21 [Example 287, (3R)-N-(3-(cyclopropylmethyl)-7-fluoro-1-isopropyl-2,4-dioxo-1,2,3,4-tetrahydroquinazolin-6-yl)-3-((2,5-difluorobenzoyl)amino)piperidine-1-carboxamide]	102%	111%	100%			
CC(C)n1c(=O)n(CC2CC2)c(=O)c2cc(NC(=O)N3CCOC(C(=O)Nc4ccc(C#N)c(F)c4)C3)ccc21 (stereo not shown) [Example 176, N^2-(4-cyano-3-fluorophenyl)-N^4-(3-(cyclopropylmethyl)-1-isopropyl-2,4-dioxo-1,2,3,4-tetrahydroquinazolin-6-yl)morpholine-2,4-dicarboxamide]	101%	111%	100%			
CC(C)n1c(=O)n(CC2CC2)c(=O)c2cc(NC(=O)N3CCC[C@@H](n4cnc5cc(C#N)ccc5c4=O)C3)c(F)cc21 [Example 324, (3R)-3-(7-cyano-4-oxoquinazoline-3(4H)-yl)-N-(3-(cyclopropylmethyl)-7-fluoro-1-isopropyl-2,4-dioxo-1,2,3,4-tetrahydroquinazolin-6-yl)piperidine-1-carboxamide]	102%	106%	103%			
CC(C(F)F)n1c(=O)n(CC2CC2)c(=O)c2cc(NC(=O)N3CCCC(n4cnc5cc(C#N)ccc5c4=O)C3)c(F)cc21 [Example 374, (3R)-3-(7-cyano-4-oxoquinazoline-3(4H)-yl)-N-(3-(cyclopropylmethyl)-1-(1,1-difluoropropan-2-yl)-7-fluoro-2,4-dioxo-1,2,3,4-tetrahydro-quinazolin-6-yl)piperidine-1-carboxamide (one stereoisomer, quinazolinedione: derived from tR2)]						102%
CC(C)n1c(=O)n(CC2CC2)c(=O)c2cc(NC(=O)N3CCC(F)(F)C(n4cnc5cc(C#N)ccc5c4=O)C3)c(F)cc21 (stereo not drawn) [Example 375, 3-(7-cyano-4-oxoquina-zoline-3(4H)-yl)-N-(3-(cyclopropylmethyl)-7-fluoro-1-isopropyl-2,4-dioxo-1,2,3,4-tetrahydro-quinazolin-6-yl)-4,4-difluoropiperidine-1-carboxamide (one stereoisomer, piperidine: derived from tR1)]	95%					
CC(C(F)F)n1c(=O)n(CC2CC2)c(=O)c2cc(NC(=O)N3CCCC(n4cnc5cc(C#N)ccc5c4=O)C3)c(F)cc21 [Example 372, (3R)-3-(7-cyano-4-oxoquinazoline-3(4H)-yl)-N-(3-(cyclopropylmethyl)-1-(1,1-difluoropropan-2-yl)-7-fluoro-2,4-dioxo-1,2,3,4-tetrahydro-quinazolin-6-yl)piperidine-1-carboxamide (one stereoisomer, quinazolinedione: derived from tR1)]	101%					
CC(C(F)F)n1c(=O)n(CC2CC2)c(=O)c2cc(NC(=O)N3CCOC(C(=O)Nc4ccc(C#N)c(Cl)c4)C3)c(F)cc21 [Example 371, (2R)-N^2-(3-chloro-4-cyanophenyl)-N^4-(3-(cyclopropylmethyl)-1-(1,1-difluoropropan-2-yl)-7-fluoro-2,4-dioxo-1,2,3,4-tetrahydro-quinazolin-6-yl)-morpholine-2,4-dicarboxamide (one stereoisomer, quinazolinedione: derived from tR1)]	95%					
CC(C(F)F)n1c(=O)n(CC2CC2)c(=O)c2cc(NC(=O)N3CCOC(C(=O)Nc4ccc(C#N)c(Cl)c4)C3)c(F)cc21 [Example 373, (2R)-N^2-(3-chloro-4-cyanophenyl)-N^4-(3-(cyclopropylmethyl)-1-(1,1-difluoropropan-2-yl)-7-fluoro-2,4-dioxo-1,2,3,4-tetrahydro-quinazolin-6-yl)morpholine-2,4-dicarboxamide (one stereoisomer, quinazolinedione: derived from tR2)]						97%
